Measured values published in patent US20110124634A1, “BIOACTIVE COMPOUNDS FOR TREATMENT OF CANCER AND NEURODEGENERATIVE DISEASES” (PONIARD PHARMACEUTICALS, INC., priority 2008, published 2011).
Like-named read-outs stand apart in the source and are kept apart here.

Tests used:
Format in all cases: cell-based
HT29 = assay: MTS assay (cytotoxicity), growth inhibition of HT29; details: Homo sapiens, HT-29, 120 h
Description: (§1) Cells were seeded in 96-well plates at 2000 cells/well in a final culture volume of 100 ul for 24 hours before the addition of 25 ul of increasing concentrations of inhibitors that was incubated for 5 days. Viable cell number was determined using the CellTiter 96 AQueous One Solution Cell Proliferation Assay (Promega). Plates were read at 490 nm absorbance 2-4 hours after addition of the MTS reagent using a multiwell plate spectrophotometer. Background was determined by measuring the Abs 490 nm of cell culture medium and MTS in the absence of cells. The background value was subtracted from all values. Absorbance 490 nm values for each inhibitor were plotted against the log 10 inhibitor concentration, and IC50 values were calculated using a nonlinear least-square curve fitting program in Prism 5.

[1] = test system: HSP90 client protein Her2 in SKBR-3 cells; assay: Her-2 degradation assay (Her-2 ELISA) in SKBr-3 cells; details: Homo sapiens
Description: Most of the compounds synthesized were evaluated for their ability to induce degradation of the HSP90 client protein Her2 in SKBR-3 cells. Selected compounds were evaluated in a fluorescence polarization (FP) assay for their affinity to HSP90.
SKBr-3 cells grown in McCoy's 5a Medium supplemented with 10% fetal bovine serum (FBS) were plated into 12-well plates at 50% confluency. Increasing concentrations of inhibitors were added 24 hours later (cells are 65-70% confluent) and incubated overnight for 18 hours. The wells were washed with 2 ml of phosphate buffered saline (PBS), and 50 ul of trypsin was added to each well. After trypsinization was complete, 150 ul of FBS was added to each well. Then 200 ul of cells were transferred to 96-well plates and plates were centrifuged at 1200 rpm for 2 minutes using a tabletop centrifuge. The cells were washed once with 250 ul PBS before being lysed with 100 ul of 50 mM Tris (pH 7.4), 0.1% NP-40 lysis buffer. Protein concentrations of clarified lysates were determined using the BCA Assay (Calbiochem) according to the manufacturer's instructions. 2 ug of each lysate was analyzed in the human sp 185 Her-2 ELISA (Bender Medsystems) according to the manufacturer's instructions. ELISA plates were read at 450 nm using a multiwell plate spectrophotometer. Background was determined by measuring the Abs 450 nm of wells with no lysate added. The background value was subtracted from all values. Absorbance 450 nm values for each inhibitor were plotted against the log 10 inhibitor concentration, and IC50 values were calculated using a nonlinear least-square curve fitting program in Prism 5.

BT474 = assay: MTS assay (cytotoxicity), growth inhibition of BT474; details: Homo sapiens, BT-474, 120 h
Description: as §1

MCF-7 = assay: MTS assay (cytotoxicity), growth inhibition of MCF-7; details: Homo sapiens, MCF7, 120 h
Description: as §1

SKBR-3 = assay: MTS assay (cytotoxicity), growth inhibition of SKBR-3; details: Homo sapiens, SK-BR-3, 120 h
Description: as §1

[2] = Table 4, 5 days, means of three independent experiments, read-out: HT29 IC50 (growth inhibition)
[3] = SK-BR-3, Table 1, series I, 18 hours, means of three independent experiments
[4] = Table 4, 5 days, means of three independent experiments, read-out: BT474 IC50 (growth inhibition)
[5] = Table 4, 5 days, means of three independent experiments, read-out: MCF-7 IC50 (growth inhibition)
[6] = Table 4, 5 days, means of three independent experiments, read-out: SKBR-3 IC50 (growth inhibition)
[7] = Table 5, series III, 5 days, read-out: Growth Inhibition (IC50) HT29
[8] = SK-BR-3, Table 5, series III, 18 hours
[9] = Table 5, series III, 5 days, read-out: Growth Inhibition (IC50) BT474
[10] = Table 5, series III, 5 days, read-out: Growth Inhibition (IC50) MCF-7
[11] = Table 5, series III, 5 days, read-out: Growth Inhibition (IC50) SKBR-3

| IC50 ([1]; SK-BR-3, Table 3, 18 hours, means of three independent experiments) [µM] | IC50 [1, 8] [µM] | Structure (SMILES) | IC50 (HT29; [2]) [µM] | IC50 [1, 3] [µM] | IC50 (BT474; [4]) [µM] | IC50 (MCF-7; [5]) [µM] | IC50 (SKBR-3; [6]) [µM] | IC50 (HT29; [7]) [µM] | IC50 (BT474; [9]) [µM] | IC50 (MCF-7; [10]) [µM] | IC50 (SKBR-3; [11]) [µM] |
| --- | --- | --- | --- | --- | --- | --- | --- | --- | --- | --- | --- |
|  |  | COc1c(C)cnc(CN2CC(=O)N(CCN3CCCC3)c3c(Cl)nc(N)nc32)c1C [Example I-7] | 1.08 | 0.51 | 0.52 | 1.32 | 0.3 |  |  |  |  |
|  |  | COc1c(C)cnc(CN2CC(=O)N(CCCN3CCOCC3)c3c(Cl)nc(N)nc32)c1C [Example I-10] | 2.95 | 1.55 | 1.81 | 2.59 | 1.11 |  |  |  |  |
| > 5 |  | COc1cc(CN2CC(=O)N(CC(C)C)c3c(Cl)nc(N)nc32)c(Cl)c(OC)c1OC [Example I-36] |  |  |  |  |  |  |  |  |  |
|  | 1.67 | COc1c(C)cnc(CN2C(=O)/C(=C\c3[nH]c(C)cc3C)c3c(Cl)nc(N)nc32)c1C [III-2, 2-Amino-4-chloro-5-[1-(3,5-dimethyl-1H-pyrrol-2-yl)-meth-(Z)-ylidene]-7-(4-methoxy-3,5-dimethyl-pyridin-2-ylmethyl)-5,7-dihydro-pyrrolo[2,3-d]pyrimidin-6-one] |  |  |  |  |  | 1.21 | 1.02 | 3.65 | 0.96 |
|  | 0.07 | CCN(CC)CCCNC(=O)c1c[nH]c(/C=C2\C(=O)N(Cc3ncc(C)c(OC)c3C)c3nc(N)nc(Cl)c32)c1 [III-29, (Z)-5-((2-Amino-4-chloro-7-((4-methoxy-3,5-dimethylpyridin-2-yl)methyl)-6-oxo-6,7-dihydro-5H-pyrrolo[2,3-d]pyrimidin-5-ylidene)methyl)-N-(3-(diethylamino)propyl)-1H-pyrrole-3-carboxamide] |  |  |  |  |  |  | 0.03 | 0.41 | 0.02 |
|  | 0.008 | COc1c(C)cnc(CN2C(=O)/C(=C\c3cc(C(=O)NCCN4CCC(=O)CC4)c[nH]3)c3c(Cl)nc(N)nc32)c1C [III-36, (Z)-5-((2-Amino-4-chloro-7-((4-methoxy-3,5-dimethylpyridin-2-yl)methyl)-6-oxo-6,7-dihydro-5H-pyrrolo[2,3-d]pyrimidin-5-ylidene)methyl)-N-(2-(4-oxopiperidin-1-yl)ethyl)-1H-pyrrole-3-carboxamide] |  |  |  |  |  |  | 0.003 | 0.41 | 0.0009 |
|  | 0.01 | CCN(CC)CCNC(=O)c1c[nH]c(/C=C2\C(=O)N(Cc3nc(C)c(C)s3)c3nc(N)nc(Cl)c32)c1 [III-69, (Z)-5-((2-Amino-4-chloro-7-((4,5-dimethylthiazol-2-yl)methyl)-6-oxo-6,7-dihydro-5H-pyrrolo[2,3-d]pyrimidin-5-ylidene)methyl)-N-(2-(diethylamino)ethyl)-1H-pyrrole-3-carboxamide] |  |  |  |  |  |  | 0.06 | 0.77 | 0.01 |
|  | 0.04 | Cc1nc(CN2C(=O)/C(=C\c3cc(C(=O)NCCN4CCOCC4)c[nH]3)c3c(Cl)nc(N)nc32)sc1C [III-70] |  |  |  |  |  |  | 0.08 | 0.32 | 0.02 |
|  | 0.02 | COc1c(C)cnc(CN2C(=O)/C(=C\c3cc(C(=O)CN4CCOCC4)c[nH]3)c3c(Cl)nc(N)nc32)c1C [III-93, (Z)-2-Amino-4-chloro-7-((4-methoxy-3,5-dimethylpyridin-2-yl)methyl)-5-((4-(2-morpholinoacetyl)-1H-pyrrol-2-yl)methylene)-5H-pyrrolo[2,3-d]pyrimidin-6(7H)-one] |  |  |  |  |  |  | 0.06 | 0.13 | 0.01 |
|  | 0.01 | CCN(CC)CC(=O)c1c[nH]c(/C=C2\C(=O)N(Cc3ncc(C)c(OC)c3C)c3nc(N)nc(Cl)c32)c1 [III-95, (Z)-2-Amino-4-chloro-5-((4-(2-(diethylamino)acetyl)-1H-pyrrol-2-yl)methylene)-7-((4-methoxy-3,5-dimethylpyridin-2-yl)methyl)-5H-pyrrolo[2,3-d]pyrimidin-6(7H)-one] |  |  |  |  |  |  | 0.02 | 0.71 | 0.002 |
|  | 0.07 | COc1c(C)cnc(CN2C(=O)/C(=C\c3[nH]c(C)c(C(=O)NCCN4CCOCC4)c3C)c3c(Cl)nc(N)nc32)c1C [III-103, (Z)-5-((2-Amino-4-chloro-7-((4-methoxy-3,5-dimethylpyridin-2-yl)methyl)-6-oxo-6,7-dihydro-5H-pyrrolo[2,3-d]pyrimidin-5-ylidene)methyl)-2,4-dimethyl-N-(2-morpholinoethyl)-1H-pyrrole-3-carboxamide] |  |  |  |  |  |  | 0.11 | 0.81 | 0.04 |
|  | 0.01 | COc1c(C)cnc(CN2C(=O)/C(=C\c3[nH]c(C)c(C(=O)NCCN4CCCC4)c3C)c3c(Cl)nc(N)nc32)c1C [III-104, (Z)-5-((2-Amino-4-chloro-7-((4-methoxy-3,5-dimethylpyridin-2-yl)methyl)-6-oxo-6,7-dihydro-5H-pyrrolo[2,3-d]pyrimidin-5-ylidene)methyl)-2,4-dimethyl-N-(2-(pyrrolidin-1-yl)ethyl)-1H-pyrrole-3-carboxamide] |  |  |  |  |  |  | 0.19 | 5.88 | 0.01 |
|  | 0.07 | COc1c(C)cnc(CN2C(=O)/C(=C\c3[nH]c(C)c(C(=O)NCCN4CCCCC4)c3C)c3c(Cl)nc(N)nc32)c1C [III-105, (Z)-5-((2-Amino-4-chloro-7-((4-methoxy-3,5-dimethylpyridin-2-yl)methyl)-6-oxo-6,7-dihydro-5H-pyrrolo[2,3-d]pyrimidin-5-ylidene)methyl)-2,4-dimethyl-N-(2-(piperidin-1-yl)ethyl)-1H-pyrrole-3-carboxamide] |  |  |  |  |  |  | 1.28 | > 1 | 0.1 |
|  | 0.04 | COc1c(C)cnc(CN2C(=O)/C(=C\c3[nH]c(C)c(C(=O)NCCN4CCS(=O)(=O)CC4)c3C)c3c(Cl)nc(N)nc32)c1C [III-106, 5-[2-Amino-4-chloro-7-(4-methoxy-3,5-dimethyl-pyridin-2-ylmethyl)-6-oxo-6,7-dihydro-pyrrolo[2,3-d]pyrimidin-(5Z)-ylidenemethyl]-2,4-dimethyl-1H-pyrrole-3-carboxylic acid [2-(1,1-dioxo-thiomorpholin-4-yl)-ethyl]-amide] |  |  |  |  |  |  | 0.09 | 0.24 | 0.04 |
|  | 0.02 | COc1c(C)cnc(CN2C(=O)/C(=C\c3[nH]c(C)c(C(=O)NCCN4CCC(O)CC4)c3C)c3c(Cl)nc(N)nc32)c1C [III-107, (Z)-5-((2-Amino-4-chloro-7-((4-methoxy-3,5-dimethylpyridin-2-yl)methyl)-6-oxo-6,7-dihydro-5H-pyrrolo[2,3-d]pyrimidin-5-ylidene)methyl)-N-(2-(4-hydroxypiperidin-1-yl)ethyl)-2,4-dimethyl-1H-pyrrole-3-carboxamide] |  |  |  |  |  |  | 0.02 | 0.23 | 0.005 |

| Structure (SMILES) | IC50 ([1]; SK-BR-3, Table 3, 18 hours, means of three independent experiments) [µM] | IC50 [1, 8] [µM] | IC50 (HT29; [2]) [µM] | IC50 [1, 3] [µM] | IC50 (BT474; [4]) [µM] | IC50 (MCF-7; [5]) [µM] | IC50 (SKBR-3; [6]) [µM] | IC50 (HT29; [7]) [µM] | IC50 (BT474; [9]) [µM] | IC50 (MCF-7; [10]) [µM] | IC50 (SKBR-3; [11]) [µM] |
| --- | --- | --- | --- | --- | --- | --- | --- | --- | --- | --- | --- |
| COc1c(C)cnc(CN2C(=O)/C(=C\c3ccc[nH]3)c3c(Cl)nc(N)nc32)c1C [III-1, 2-Amino-4-chloro-7-(4-methoxy-3,5-dimethyl-pyridin-2-ylmethyl)-5-[1-(1H-pyrrol-2-yl)-meth-(Z)-ylidene]-5,7-dihydro-pyrrolo[2,3-d]pyrimidin-6-one] |  | 0.09 |  |  |  |  |  | 0.03 | 0.03 | 0.09 | 0.09 |
| COc1c(C)cnc(CN2C(=O)/C(=C\c3nc(NC(=O)C(C)C)c[nH]3)c3c(Cl)nc(N)nc32)c1C [III-71, (Z)-N-(2-((2-Amino-4-chloro-7-((4-methoxy-3,5-dimethylpyridin-2-yl)methyl)-6-oxo-6,7-dihydro-5H-pyrrolo[2,3-d]pyrimidin-5-ylidene)methyl)-1H-imidazol-4-yl)isobutyramide] |  | 0.05 |  |  |  |  |  |  | 0.08 | 0.37 | 0.03 |
| CCN(CC)CCCc1ccc(/C=C2\C(=O)N(Cc3ncc(C)c(OC)c3C)c3nc(N)nc(Cl)c32)[nH]1 [III-86] |  | 0.31 |  |  |  |  |  |  | 0.76 | 1.37 | 1.13 |
